Measurements from patent US8440677B2, “Atropisomers of 2-purinyl-3-tolyl-quinazolinone derivatives and methods of use” (Gilead Calistoga LLC, priority 2009, dated 2013).
Like-named read-outs stand apart in the source and are kept apart here.

Columns and labels:
[1] = for plasma concentration at 24 hours: female rats, single dose 1.5 mg/kg
[2] = Elimination in urine by LC-MS; type: in vivo; details: compared with 1(S)
[3] = clinical; details: human, plasma, po, 100 mg
[4] = Solubility in a series of aqueous solvents (FIG. 4); type: physicochemical; details: variety of aqueous solutions
[5] = human; for AUClast / Cmax / T½: 25 mg racemate daily for 7 days, 40 nCi labeled spike on day 4
[6] = Interconversion of atropisomers in blood plasma; type: in vivo; details: within 4 hours after administration of the atropisomer
Excerpt: Another possible explanation for the difference in exposure is that 1(R) is interconverted to 1(S) over time. […] However, this small amount of conversion should only account for a fraction of the difference in exposure rates in vivo and other factors, such as selective elimination of 1(R), are likely to play the major role in the lowered exposure rate of 1(R).

[7] = molecular target: p110δ (Homo sapiens, UniProt O00329); assay: In vitro activity against p110 isoforms, biochemical assays (FIG. 5A); details: versus p110alpha, p110beta, p110 gamma isoforms
Excerpt: (§1) The in vitro activity of 1 and atropisomers, 1(S) and 1(R), have similar profiles in various isoforms of p110 inhibition as shown in FIGS. 5A and 5B. […] Although their in vitro potency appears to be similar, there are surprising in vivo differences observed between 1(S) and 1(R) as discovered in pharmacokinetic studies, mainly relating to the increased exposure of 1(S) and decreased exposure of 1(R) in the subject.
Target sequence in this assay (P27986 whole entry partner, one chain of several, canonical isoform): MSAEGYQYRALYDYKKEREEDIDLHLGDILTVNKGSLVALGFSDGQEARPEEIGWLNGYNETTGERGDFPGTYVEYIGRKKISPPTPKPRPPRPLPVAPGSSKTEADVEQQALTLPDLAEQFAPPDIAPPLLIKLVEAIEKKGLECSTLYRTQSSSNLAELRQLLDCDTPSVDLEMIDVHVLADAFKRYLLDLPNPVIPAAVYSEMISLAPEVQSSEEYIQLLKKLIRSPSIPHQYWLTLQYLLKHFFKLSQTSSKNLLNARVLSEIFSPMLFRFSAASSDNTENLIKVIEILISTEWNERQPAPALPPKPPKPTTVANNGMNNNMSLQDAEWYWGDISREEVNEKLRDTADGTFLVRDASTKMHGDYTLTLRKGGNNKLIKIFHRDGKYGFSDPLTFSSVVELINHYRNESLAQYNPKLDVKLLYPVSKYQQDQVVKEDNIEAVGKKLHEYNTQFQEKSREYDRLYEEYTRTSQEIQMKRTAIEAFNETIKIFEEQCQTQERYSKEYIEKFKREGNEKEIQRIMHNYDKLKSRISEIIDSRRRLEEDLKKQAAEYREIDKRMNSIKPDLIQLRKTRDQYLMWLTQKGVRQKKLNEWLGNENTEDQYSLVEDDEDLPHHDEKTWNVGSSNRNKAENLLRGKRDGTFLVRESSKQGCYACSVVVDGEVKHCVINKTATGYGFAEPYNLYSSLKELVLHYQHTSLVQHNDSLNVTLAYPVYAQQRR

[8] = human subject, oral radiolabeled atropisomer; for metabolite formation in plasma, 72 hours: 72 hours after administration
[9] = molecular target: T1, p110δ (Homo sapiens, UniProt O00329); assay: In vitro activity against p110 isoforms, cell-based assays (FIG. 5B); details: versus other p110 isoforms
T1 sequence (O00329 1-1044): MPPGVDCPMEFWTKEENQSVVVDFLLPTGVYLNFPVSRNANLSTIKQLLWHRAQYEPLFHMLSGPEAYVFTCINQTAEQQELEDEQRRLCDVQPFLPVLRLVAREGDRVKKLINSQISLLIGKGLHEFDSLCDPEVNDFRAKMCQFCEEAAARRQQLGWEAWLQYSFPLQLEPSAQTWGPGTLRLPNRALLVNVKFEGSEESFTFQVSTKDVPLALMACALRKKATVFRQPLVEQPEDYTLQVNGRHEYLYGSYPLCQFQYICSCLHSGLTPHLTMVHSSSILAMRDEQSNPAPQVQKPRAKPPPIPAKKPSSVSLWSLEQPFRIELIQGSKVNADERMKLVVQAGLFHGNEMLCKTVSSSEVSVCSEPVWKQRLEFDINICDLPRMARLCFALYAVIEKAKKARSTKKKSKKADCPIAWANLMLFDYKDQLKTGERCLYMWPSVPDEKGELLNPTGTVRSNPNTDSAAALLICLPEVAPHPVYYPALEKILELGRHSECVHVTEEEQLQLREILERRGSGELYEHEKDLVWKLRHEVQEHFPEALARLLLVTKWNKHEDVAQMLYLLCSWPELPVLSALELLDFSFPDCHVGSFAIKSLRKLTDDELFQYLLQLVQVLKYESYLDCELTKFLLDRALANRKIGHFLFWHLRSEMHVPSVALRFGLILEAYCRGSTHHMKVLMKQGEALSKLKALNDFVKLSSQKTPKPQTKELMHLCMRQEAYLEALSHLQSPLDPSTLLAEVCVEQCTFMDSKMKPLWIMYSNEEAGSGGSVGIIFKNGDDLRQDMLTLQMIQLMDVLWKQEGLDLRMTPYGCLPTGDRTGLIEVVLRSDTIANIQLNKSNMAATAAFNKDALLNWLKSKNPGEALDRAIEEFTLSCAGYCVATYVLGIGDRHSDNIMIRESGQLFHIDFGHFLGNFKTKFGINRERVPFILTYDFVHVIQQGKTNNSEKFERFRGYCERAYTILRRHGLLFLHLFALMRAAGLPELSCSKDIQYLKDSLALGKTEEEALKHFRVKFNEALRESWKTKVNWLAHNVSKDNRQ
Excerpt: as §1

[10] = Plasma concentration of atropisomers in rats after oral dosing with racemic 1 (FIG. 6); type: in vivo; details: female rats, single 50 mg/kg oral dose of racemic 1, 8 hours after dosing
[11] = Plasma concentration of atropisomers in dogs after oral dosing with racemic 1 (FIG. 7); type: in vivo; details: female dogs, single 50 mg/kg oral dose of racemic 1
Protocol: The tagged racemic mixture or separated atropisomers were administered in rats, dogs, and human subjects through oral and i.v. routes. The compounds were dissolved in PEG 100 such that any difference in dissolution rates would not play a role in the pharmacokinetic profile of the compounds. […] After administration of the compound, blood plasma of the subjects were sampled over time and evaluated by analytical HPLC methods developed to identify and measure concentrations of compound 1(S) or 1(R) present in the sample. It was observed that the most abundant isomer measured in the plasma is compound 1(S), which accounts for 70-80% of exposure to the subject.
In approximately 1 hour after dosing the maximum concentration of compounds 1(S) and 1(R) is reached. At that point, the concentration of 1(R) is less than half the concentration of compound 1(S). […] These large differences in pharmacokinetic behavior were not predictable.

[12] = human subjects
[13] = Metabolic products in rat urine by LC-MS (FIG. 12); type: in vivo; details: rats, single 50 mg/kg oral dose of the atropisomer
Protocol: A single 50 mg/kg oral dose of either atropisomer 1(S) or 1(R) was administered to rat subjects. The rat urine was subsequently sampled and analyzed using LC-MS instrumentation.

[14] = Plasma concentration in human subjects after a single oral dose of 100 mg or 10 mg (FIG. 10); type: in vivo
[15] = Metabolites in human plasma; details: human subjects dosed with the substance
[16] = Human pharmacokinetics, racemic mixture versus 1(S) at 10 mg once daily; type: in vivo
Protocol: Human pharmacokinetic was obtained after both the racemic mixture and 1(S) were administered at 10 mg once daily. […] Since the dose is low and well absorbed, as evidenced by the determination of 100% bioavailability, it is likely that the 1(R) metabolism is greater. The greater extent and complexity of 1(R) metabolism was supported by studies on human and rat in vivo metabolism as well as in vitro studies of human liver microsomes and protein binding.

[17] = compounds dissolved in PEG 100
[18] = in vivo; details: female, Sprague Dawley, rat, iv
[19] = tested on: collagen induced arthritis (CIA) rats; assay: Collagen induced arthritis (CIA) rats; type: in vivo, rat; details: compared to vehicle
[20] = Plasma concentration in rats after single oral dose of 1(S) or 1(R) (FIG. 9B); type: in vivo, rat; details: female rats, single oral dose 1.5 mg/kg, 12 hour time point
[21] = Metabolites in human urine by LC/MS/MS; details: humans
Excerpt: Urine was collected from humans dosed the racemic mixture and evaluated for possible metabolites using LC/MS/MS.

[22] = female SD rats, single bolus i.v.
[23] = 25 mg racemate daily, labeled spike on day 4, after day 1
[24] = single 100 mg oral dose of racemic 1

SMILES: Cc1ccccc1-n1c(Cn2cnc3c(N)ncnc32)nc2cccc(C)c2c1=O (single isomer, unassigned) [Compound 1(R), 2-((6-amino-9H-purin-9-yl)methyl)-5-methyl-3-o-tolylquinazolin-4(3H)-one]
- Vz of 1(R) relative to 1(S) or racemic mixture [1, 22]: about 2.6 times
- half life of 1(R) relative to 1(S) or racemic mixture 1 [1, 22]: about 2.8 times
- plasma concentration at 24 hours [1]: very low
- elimination in urine [2]: preferentially eliminated in urine
- half-life ([3]; half-life, human subjects, single 100 mg oral dose of racemic 1): ~9 h
- solubility differences between 1(S) and 1(R) [4]: Modest solubility differences
- AUClast [5]: 21676 neq*h/mL
- Cmax [5]: 1946 neq/mL
- concentration of 14C radiolabeled material in blood plasma ([5]; 25 mg racemate daily, labeled spike on day 4, 50 hours from dosing): 10-50 neq/mL
- concentration of 1(R) relative to 1(S) [5, 23]: about one-fourth
- concentration of 14C radiolabeled material in blood plasma [5, 23]: about 500 neq/mL
- conversion to the other atropisomer in blood plasma [6]: approximately 14%
- p110δ inhibition in biochemical assays [7]: selective p110δ inhibition
- metabolite formation in plasma, 72 hours [8]: primarily the metabolites are detected
- p110δ inhibition in cell-based assays [9]: selective p110δ inhibition
- average plasma concentration of 1(R) relative to 1(S) [10]: approximately one-fourth
- plasma concentration of 1(R) relative to 1(S) at maximum concentration [11]: less than half
- time to maximum plasma concentration [11]: approximately 1 hour
- plasma concentration of 1(R) relative to 1(S) at maximum concentration [12, 24]: less than half
- metabolic products found in urine [13]: more metabolic products

SMILES: Cc1ccccc1-n1c(Cn2cnc3c(N)ncnc32)nc2cccc(C)c2c1=O (single isomer, unassigned) [Compound 1(S), 2-((6-amino-9H-purin-9-yl)methyl)-5-methyl-3-o-tolylquinazolin-4(3H)-one]
- plasma concentration at 24 hours [1]: very low
- maximum plasma concentration of 1(S) relative to 1(R) ([14]; single oral dose of 10 mg): about double
- maximum plasma concentration of 1(S) relative to 1(R) ([14]; single oral dose of 100 mg): over 2 times
- half-life [3]: > 72 h
- solubility differences between 1(S) and 1(R) [4]: Modest solubility differences
- AUClast [5]: 90511 neq*h/mL
- Cmax [5]: 3930 neq/mL
- T½ [5]: 63.9 h
- AUC of 1(S) relative to 1(R) ([5]; data of FIG. 11): over 4 times
- Cmax of 1(S) relative to 1(R) ([5]; data of FIG. 11): twice
- half-life of 1(S) relative to 1(R) ([5]; data of FIG. 11): 6 times
- conversion to the other atropisomer in blood plasma [6]: less than 1%
- number of metabolites observed in plasma [15]: one
- p110δ inhibition in biochemical assays [7]: selective p110δ inhibition
- Cmax of 1(S) greater than racemic mixture [16]: 30%
- increase of AUC0-24 of 1(S) over racemic mixture ([16]; Day 1): 2.4 fold
- increase of AUC0-24 of 1(S) over racemic mixture ([16]; Day 7): 40%
- share of exposure to the subject (most abundant isomer in plasma) [17]: 70-80%
- AUC ([18]; plasma, 1.5 mg/kg): 865 ± 212 ng·h/mL
- Vd ([18]; plasma, 1.5 mg/kg): 5.77 ± 2.74 L/kg
- clearance ([18]; plasma, 1.5 mg/kg): 30.6 mL/min/kg
- half-life ([18]; plasma, 1.5 mg/kg): 2.5 ± 1.6 h
- metabolite formation in plasma, 1 hour ([8]; 1 hour after administration): remains largely unmodified
- metabolite formation in plasma, 72 hours [8]: still less than the amount of the parent compound
- anti-collagen antibody levels ([19]; FIG. 15): reduction of collagen antibody levels
- X-ray score (radiographic assessment) ([19]; FIG. 16): reduction in the X-ray score
- histopathology, dark areas of tissue images ([19]; similar to MTX, FIGS. 17A-D): reduced
- arthritis score ([19]; versus days post compound dosing, FIG. 14): activity in reducing the severity of arthritis
- p110δ inhibition in cell-based assays [9]: selective p110δ inhibition
- time to maximum plasma concentration [11]: approximately 1 hour
- half-life in humans (in words) ([12]; oral racemic 1, greater than in dogs): several days
- share of the exposure at the maximum concentration point [12, 24]: approximately 70%
- plasma concentration of 1(S) relative to 1(R) ([12]; single 100 mg oral dose of racemic 1, 72 hours post-dosing): over 10 times
- plasma concentration of 1(S) versus 1(R) [20]: greatly exceed
- metabolic products found in urine [13]: mainly one compound

SMILES: Cc1ccccc1-n1c(Cn2cnc3c(N)ncnc32)nc2cccc(C)c2c1=O (single isomer, unassigned) [Compound 1, 2-((6-amino-9H-purin-9-yl)methyl)-5-methyl-3-o-tolylquinazolin-4(3H)-one]
- number of metabolites confirmed in urine ([21]; authentic racemic standards, achiral method): 5
- total number of metabolites observed in urine ([21]; counting atropisomers of metabolites): 9
- AUClast [5]: 51,032 ± 22,383 neq*h/mL
- Cmax [5]: 2780 ± 1163 neq/mL
- T½ [5]: 69.9 ± 26.6 h
- number of metabolites observed in plasma ([15]; listed as racemic mixture): 2
- p110δ inhibition in biochemical assays [7]: selective p110δ inhibition
- AUC ([18]; in vivo, 3 mg/kg): 1970 ± 243 ng·h/mL
- Vd ([18]; in vivo, 3 mg/kg): 5.4 ± 1.57 L/kg
- clearance ([18]; in vivo, 3 mg/kg): 26 mL/min/kg
- half-life ([18]; in vivo, 3 mg/kg): 2.5 ± 0.7 h
- p110δ inhibition in cell-based assays [9]: selective p110δ inhibition
